Test system: Streptococcal cell wall (SCW)-induced arthritis in female Lewis rats
Test: Rat streptococcal cell wall (SCW)-induced arthritis: ankle swelling and von Frey mechanical threshold
Type: in vivo
Conditions: P2X7 antagonist 1 30 mg/kg oral bid, Etanercept 0.5 mg/kg s.c.; for % reduction of AUC (compared to arthritic vehicle control), Ankle swelling: AUC from day -1 to day 6 post-induction; for % reduction of AUC (compared to arthritic vehicle control), Von Frey threshold: von Frey filaments on days -1, 1, 3, 5
Text: Assessment of Anti-Inflammatory Activity of TNFα Inhibitor/P2X7 Anatagonist Combinations in Rat Streptococcal Cell Wall-Induced Arthritis. ^1 1. Experimental procedure based on that described by Carlson R P, Jacobsen P B; ‘Comparison of adjuvant and streptococcal cell wall-induced arthritis in the rat’ in Morgan D W, Marshall L A, editors; In Vivo Models of Inflammation. Basel: Birkhauser Verlag; 1999.
Streptococcal cell wall (SCW)-induced arthritis was induced in the left ankle of female Lewis rats. Animals were sensitised by intra-articular injection of 5 μg (in 20 μL) SCW (Lee Laboratories) into the left ankle. Ankle swelling was assessed 3 days after injection and non-responders (animals with no apparent ankle swelling) were rejected. Responding animals were randomly allocated to the test groups.
Arthritis was induced 21 days after sensitisation by intravenous (iv) injection of SCW (100 μg in 500 μL saline). Animals were monitored and assessed on a daily basis through to termination 6 days after induction. The rats were housed on sawdust and provided with food and water ad libitum.
In this example the P2X7 antagonist 1, was orally dosed at 30 mg/kg (4 mL/kg, bid). The compound was dosed as a suspension in 1% (w/v) methylcellulose in deionised water and was freshly prepared on a daily basis. Dosing commenced 1 day prior to induction of arthritis and continued through to termination on day 6 post-induction. Etanercept (0.5 mg/kg) was administered by subcutaneous injection (1 mL/kg) 1 day prior to induction of arthritis and then on days 1, 3 and 5 post-induction.
Ankle diameters were measured with vernier callipers on a daily basis from day −1. Mechanical thresholds were assessed using von Frey filaments on days −1, 1, 3 and 5. The filaments were applied in increasing weights to the ankle region on the footpad of both feet. The first filament to induce a withdrawal response was considered to be the threshold.
Effects on ankle swelling and mechanical threshold were calculated on an area under the curve (AUC) basis, as the sum of the differences from individual day −1 values. The size and direction of the interaction was calculated and data analysis performed by ANOVA followed by Dunnett's test on the AUC data (SAS version 8.01).

Compound	% reduction of AUC (compared to arthritic vehicle control), Ankle swelling [%]	% reduction of AUC (compared to arthritic vehicle control), Von Frey threshold [%]
Cc1ccc(C(=O)N2CC3CNCC(C2)O3)cc1NC(=O)CC12CC3CC(CC(C3)C1)C2.Cl [P2X7 antagonist 1, N-[2-Methyl-5-(9-oxa-3,7-diazabicyclo[3.3.1]non-3-ylcarbonyl)phenyl]-tricyclo[3.3.1.1^3,7]decane-1-acetamide, hydrochloride]	28.5 ± 13.5	21.1 ± 10.9
Etanercept	44.0 ± 4.7	7.4 ± 6.8
